Test results as given in US20040038894A1, “Compounds for modulating cell negative regulations and biological applications thereof” (INSTITUT NATIONAL DE LA SANTE ET DE LA RECHERCHE MEDICALE …, priority 1996, published 2004).
Where no end group is shown, it is not given here. [ ]: non-standard residue; d: D form. The star is where a group is joined. Biotin = O=C1N[C@H]2[C@H](CS[C@H]2CCCCC(=O)*)N1; pY = N[C@@H](Cc1ccc(OP(=O)(O)O)cc1)C(=O)O

T1: GST-SHIP.SH2 fusion protein (murine, UniProt Q9ES52 8-104)
T1 construct: also called SH2 domain of SHIP; not shown: Glutathione S-transferase (GST) fusion partner
T1 sequence (looked up): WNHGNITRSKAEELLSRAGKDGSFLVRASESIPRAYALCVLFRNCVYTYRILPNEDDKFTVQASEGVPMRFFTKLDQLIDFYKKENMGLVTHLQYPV

T2: SHIP polyinositol phosphatase from RBL-2H3 cell lysates (rat (cell line RBL-2H3), UniProt P97573 1-1190, limits assumed)
T2 construct: Detected by immunoblot with anti-SHIP antiserum
T2 sequence (looked up): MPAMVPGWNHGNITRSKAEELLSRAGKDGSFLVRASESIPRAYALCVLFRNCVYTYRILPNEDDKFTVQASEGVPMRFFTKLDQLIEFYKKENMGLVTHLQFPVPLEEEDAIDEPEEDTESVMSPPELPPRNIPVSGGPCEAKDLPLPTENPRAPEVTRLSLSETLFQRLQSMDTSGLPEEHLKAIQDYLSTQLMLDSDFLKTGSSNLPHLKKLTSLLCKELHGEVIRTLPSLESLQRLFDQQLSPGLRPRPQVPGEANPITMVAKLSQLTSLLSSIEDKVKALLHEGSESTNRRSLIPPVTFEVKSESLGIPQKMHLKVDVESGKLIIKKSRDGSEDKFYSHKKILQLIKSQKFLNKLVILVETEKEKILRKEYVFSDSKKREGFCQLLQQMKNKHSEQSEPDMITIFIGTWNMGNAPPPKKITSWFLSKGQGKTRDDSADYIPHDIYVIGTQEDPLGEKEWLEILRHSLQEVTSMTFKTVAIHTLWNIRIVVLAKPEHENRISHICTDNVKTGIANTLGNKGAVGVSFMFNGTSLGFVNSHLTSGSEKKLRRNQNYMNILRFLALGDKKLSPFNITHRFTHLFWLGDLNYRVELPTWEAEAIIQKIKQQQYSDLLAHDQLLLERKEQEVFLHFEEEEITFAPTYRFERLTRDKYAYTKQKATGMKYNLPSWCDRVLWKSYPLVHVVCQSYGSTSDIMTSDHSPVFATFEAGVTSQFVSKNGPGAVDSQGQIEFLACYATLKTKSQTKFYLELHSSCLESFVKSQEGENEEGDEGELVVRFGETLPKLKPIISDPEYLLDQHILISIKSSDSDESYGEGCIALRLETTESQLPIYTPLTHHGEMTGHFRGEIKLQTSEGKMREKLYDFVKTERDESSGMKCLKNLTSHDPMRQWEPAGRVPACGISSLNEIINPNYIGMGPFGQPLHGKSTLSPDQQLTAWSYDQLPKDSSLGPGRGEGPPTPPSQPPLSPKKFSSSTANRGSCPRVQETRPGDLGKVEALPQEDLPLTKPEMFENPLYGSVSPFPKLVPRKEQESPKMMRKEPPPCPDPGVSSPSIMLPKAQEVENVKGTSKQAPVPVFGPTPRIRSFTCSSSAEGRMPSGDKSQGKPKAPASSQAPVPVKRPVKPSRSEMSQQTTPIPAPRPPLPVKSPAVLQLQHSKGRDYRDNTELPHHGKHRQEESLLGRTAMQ


Key:
[1] = system: melanoma-specific CTL clones; experiment: Auto-presentation assay, CTL lysis; type: cell-based, human; details: clone M117-14, TYR peptide, 2 hours
Experimental: (§1) 5×10^4 CTLs were incubated with indicated concentrations of peptides in 100 μl final volume. After two hours, supernatants were harvested to test the TNF secretion and lysis was estimated by flow cytometry on the basis of size/granularity patterns as previously described. TNF determinations were performed by a biologic assay using cytotoxicity on the sensitive WEHI 164 clone 13 cells, as compared to a standard curve established using rTNF-β (Genzyme).
Results are illustrated by FIG. 14 showing the negative regulation of antigen-induced CTL clone cytotoxicity by CD94-NKG2A. In FIG. 14, cells from the melanoma specific CTL clone M117-14 were stimulated in an auto-presentation assay with the indicated concentrations of cognate peptide (TYR). Cytotoxicity was measured, in the presence or absence of anti-CD94 mAb (HB-3B1). Cell lysis was estimated by flow cytometry on the basis of size/granularity patterns after auto-presentation in a short term assay (2 hours). Data shown are representative from 5 independent experiments.

[2] = system: melanoma-specific CTL clones; experiment: Auto-presentation assay, TNF release; type: cell-based, human; details: clone M117-14, TYR peptide 10 μM, mAb without cross-linking
Experimental: as §1
Results are illustrated by FIG. 13 showing that CD94-NKG2A inhibits the antigen-specific TNF production by CTL clones. In FIG. 13, the melanoma specific CTL clones M117-14 and 7-10 were stimulated in an auto-presentation assay with their respective cognate peptides (i.e.:EAA for 7-10 and M77-84, and TYR for M117-14) at a concentration of 10 μM, in the presence or indicated mAbs. TNF release was assessed in the supernatant by a biological assay using the WEHI 164, a TNF sensitive cell line. Data from one representative experiment out of five, are expressed as mean TNF (pg/ml)±SD of triplicate samples.

[3] = target: T1, GST-SHIP.SH2 fusion protein; experiment: SPR (BIAcore), phosphopeptide (25 RU) on streptavidin chip, FIG. 16
Experimental: Surface plasmon resonance measurements were performed on a BIAcore apparatus (BIAcore). The GST-SHP1.SH2(NC), GST-SHP2.SH2(NC) and GST-SHIP.SH2 fusion proteins generated from the murine phosphatase cDNAs, were purified from DH5α lysates as previously described. Before their use in BIAcore experiments, fusion proteins were dialyzed in HBS buffer pH 7.4 (10 mM HEPES, 150 mM NaCl, 3.4 mM EDTA). Protein purity was assessed by 12.5% SDS-PAGE, and Coomassie blue staining. The running buffer used in all BIAcore experiments consisted of HBS buffer supplemented with 0.05% surfactant P20. Equilibrium constant determination (koff and kₒₙ) was performed using BIAevaluation 2.0 software. The equilibrium dissociation constants KD were calculated from the koff/kₒₙ ratio.
The measurement of phosphorylated peptide binding to GST-SHP-1.SH2(N+C) and GST-SHP-2.SH2(N+C) fusion proteins was performed at a constant 5 μl/min flow rate. […] Results are expressed as corrected resonance units (CRU) corresponding to the raw RU values after subtraction of background RU value due to the injection medium, koff and kₒₙ were calculated from three independent measurements using the BIAevaluation 2.0 software. In addition, kₒₙ was calculated as the slope of the curve kg=kₒₙ×c−koff, where koff is the off-rate constant and c is the concentration of the soluble recombinant GST fusion proteins. […]

[4] = target: T2, SHIP polyinositol phosphatase from …; experiment: cell lysate adsorption to peptide beads, immunoblot (RBL-2H3), FIG. 15A
Experimental: In an attempt to characterize the function of these putative ITIMs, cell lysates were incubated with phosphorylated and nonphosphorylated synthetic peptides corresponding to the N-terminal and the C-terminal I/VxYxxL stretches present in NKG2A intracytoplasmic domain. Cell lysates absorbed to peptides were then assayed by immunoblotting for the presence of the phosphatases known to interact with phosphorylated ITIMs, i.e. the protein tyrosine phosphatases SHP-1 and SHP-2, as well as the polyinositol phosphate phosphatase, SHIP. In parallel, lysates adsorption were performed using control peptides corresponding to ITIMs present in Ig-like ITIM bearing receptors such as human KIRs (p58.2/CD158b, a receptor for HLA-Cw3) and mouse FcγRIIB, as well as in mouse lectin-like ITIM-bearing receptor, such as Ly-49A.
As shown in FIG. 15A (lanes 1 and 2), both N- and C-terminal I/VxYxxL stretches present in NKG2A associate with SHP-1 and SHP-2 in vitro, but no binding to SHIP was detected. Similar patterns of association were obtained using the phosphorylated ITIM peptides of […] and p58.2 KIR (FIG. 15A, lanes 3 to 5). In contrast, FcγRIIB phosphorylated ITIM peptides also associate with SHIP (FIG. 15A, lane 6). No association of phosphatases with nonphosphorylated peptides corresponding to FcγRIIB (FIG. 15A, lane 7) and NKG2A N- and C-terminal I/VxYxxL stretches was detected. When nonphosphorylated and phosphorylated peptides were used to adsorb lysates prepared from ³⁵S methionine/cysteine-labeled cells, only two bands around 64 and 68 kDa selectively associate with both phosphorylated NKG2A N- and C-terminal I/VxYxxL stretches, as compared to nonphosphorylated ones (FIG. 15B). The 64 and 68 kDa proteins which bind to phosphorylated NKG2A peptides correspond to SHP-1 and SHP-2 apparent molecular weight respectively, supporting the immunoblotting results. Therefore, our results define the two NKG2A I/VxYxxL stretches as ITIMs which appear to function similarly to other ITIMs present in inhibitory receptors for MHC class I molecules, i.e. KIRs and Ly-49 molecules. Using recombinant soluble tandem SH2 domains of SHP-1 and SHP-2, we confirmed by surface plasmon resonance that both NKG2A ITIM phosphopeptides directly associate with the SH2 domains of SHP-1 and SHP-2, but not with the SH2 domain of SHIP (FIG. 16).

Molecule	CTL lysis (auto-toxicity) [1]	TNF production [2]	binding result [3]	binding result [4]
Y1MDGTMSQV9 [TYR]	lysed in a dose-dependent manner	released TNF	–	–
Biotin-MDNQGVI[pY]SDLNL (also called NKG2-A N-terminal ITIM; NKG2A/B phosphorylated ITIM peptide) [phosphorylated NKG2A N-term peptide (N-terminal ITIM)]	–	–	no binding (tested: 100 nM)	no binding
